What was measured:
Huh7, Mahlavu and MCF7 = assay: SRB cytotoxicity, summary for all three cell lines; assay type: cell-based; conditions: Homo sapiens; one value or range for Huh7, Mahlavu and MCF7 together; read-out: IC50 against all three cell lines
Procedure: Mahlavu, FOCUS, SNU475 (1000 cell/well in 150 μL/well); Huh7, MCF7 (2500 cell/well in 150 μL/well); HepG2, Hep3B, SKBR3 (3000 cell/well in 150 μL/well); PLC-PRF-5, Hep40 (5000 cell/well in 150 μL/well); MDA-MB-231, MDA-MB-468, MCF10A (6000 cell/well in 150 μL/well); and ZR-75 (7500 cell/well in 150 μL/well) were cultured in 96-well plates and were inoculated in an incubator for 24 hours. The compounds were dissolved in dimethyl sulfoxide (DMSO) (Sigma, St Louis, MO) as a 20 mM stock solution. The treatment of cells with the compounds was done in a concentration range starting from 40 to 2.5 μM. The compounds which were below 2.5 μM were tested in a concentration range from 2.5 to 0.15 μM. End of the 72h compound treatment, the cells were fixed using 10% (v/v) trichloroacetic acid (MERCK) for an hour and washed with ddH2O, and left for air-drying. The fixed plates were stained with 50 μL of sulforhodamine B (SRB) solution (Sigma) at RT for 10 min. To remove unbound SRB dye, acetic acid was used to wash cells three times and left for drying. The protein-bound SRB was solubilized with 10 mM Tris-base (Sigma) and their absorbance was measured with a 96-well plate reader at 515 nm wavelength (ELx800, Biotek). The IC50 values of compounds were calculated in comparison with control group DMSO. Data with R^2 values larger than 0.9 are considered significant.

[1] = Metabolic stability in human microsomes; assay type: in vitro ADME; conditions: after 45 min incubation
Procedure: (§1) All chemicals were purchased from different suppliers such as Sigma-Aldrich Chemicals (Sigma-Aldrich Corp., St. Louis, MO), Merck Chemicals (Merck KGaA, Darmstadt, Germany), and ABCR (abcr GmbH, Karlsruhe, Germany). THF was dried from benzophenone-sodium. ^1H and ^13C NMR spectra were recorded in CDCl3 or DMSO-d6 on a Varian Mercury 400 MHz spectrometer using tetramethylsilane as the internal standard. Coupling constants were reported as Hertz and all chemical shifts were recorded as δ (ppm). High-resolution mass spectra data (HRMS) were collected using Waters LCT Premier XE Mass Spectrometer operating in ESI(+) or ESI(−) method, also coupled to an AQUITY Ultra Performance Liquid Chromatography system (Waters Corporation) using a UV detector monitoring at 254 nm. Purity for all final compounds was >95%, according to the UPLC-MS method using a water/MeCN solvent gradient containing 0.1% formic acid (1%/90%); flow rate: 0.3 mL/min, column: Aquity BEH C18 column (2.1 × 100 mm^2, 1.7 mm). All microwave irradiation reactions were carried out in a Biotage Initiator + microwave apparatus with Biotage sealed microwave vials. […] Melting points of the compounds were determined using the SMP50 automated melting point apparatus (Stuart, Staffordshire, ST15 OSA, U.K.). […]

logD7.4 = assay type: physicochemical; conditions: pH 7.4
Procedure: as §1

[2] = Solubility at the physiological pH; assay type: physicochemical
Procedure: as §1

plasma protein = assay: Plasma protein binding; assay type: in vitro ADME
Procedure: as §1

CYP2C9 = CYP2C9 (Homo sapiens, UniProt P11712); assay: CYP inhibition; assay type: in vitro ADME; conditions: read-out: Inhibition of human CYP 2C9
Procedure: (§2) All chemicals were purchased from different suppliers such as Sigma-Aldrich Chemicals (Sigma-Aldrich Corp., St. Louis, MO), Merck Chemicals (Merck KGaA, Darmstadt, Germany), and ABCR (abcr GmbH, Karlsruhe, Germany). THF was dried from benzophenone-sodium. ^1H and ^13C NMR spectra were recorded in CDCl3 or DMSO-d6 on a Varian Mercury 400 MHz spectrometer using tetramethylsilane as the internal standard. Coupling constants were reported as Hertz and all chemical shifts were recorded as δ (ppm). High-resolution mass spectra data (HRMS) were collected using Waters LCT Premier XE Mass Spectrometer operating in ESI(+) or ESI(−) method, also coupled to an AQUITY Ultra Performance Liquid Chromatography system (Waters Corporation) using a UV detector monitoring at 254 nm. Purity for all final compounds was >95%, according to the UPLC-MS method using a water/MeCN solvent gradient containing 0.1% formic acid (1%/90%); flow rate: 0.3 mL/min, column: Aquity BEH C18 column (2.1 × 100 mm^2, 1.7 mm). All microwave irradiation reactions were carried out in a Biotage Initiator + microwave apparatus with Biotage sealed microwave vials. Flash chromatography was performed on a Combiflash Rf Automatic Flash Chromatography System with RediSep silica gel columns (12, 24, and 40 g) (Teledyne-Isco, Lincoln, NE) or Reveleris PREP Purification System (Buchi, New Castle, DE). Preparative chromatography was performed on Buchi US15C18HQ-250/212-C18 silica gel columns with the following devices; Reveleris PREP Purification System or PuriFlash 4250 System (Interchim, Montluçon, France). Melting points of the compounds were determined using the SMP50 automated melting point apparatus (Stuart, Staffordshire, ST15 OSA, U.K.). The in vitro ADME and in vivo mouse PK studies were conducted at Syngene International Ltd., Bangalore, India. General synthetic procedures (Methods 1–9) and experimental data for all intermediate compounds can be found in the Supporting Information.

CYP2D6 = CYP2D6 (Homo sapiens, UniProt P10635); assay: CYP inhibition; assay type: in vitro ADME; conditions: read-out: Inhibition of human CYP 2D6
Procedure: as §2

CYP3A4 = CYP3A4 (Homo sapiens, UniProt P08684); assay: CYP inhibition; assay type: in vitro ADME; conditions: read-out: Inhibition of human CYP 3A4
Procedure: as §2

CYP3A4, sequence (P08684 whole entry): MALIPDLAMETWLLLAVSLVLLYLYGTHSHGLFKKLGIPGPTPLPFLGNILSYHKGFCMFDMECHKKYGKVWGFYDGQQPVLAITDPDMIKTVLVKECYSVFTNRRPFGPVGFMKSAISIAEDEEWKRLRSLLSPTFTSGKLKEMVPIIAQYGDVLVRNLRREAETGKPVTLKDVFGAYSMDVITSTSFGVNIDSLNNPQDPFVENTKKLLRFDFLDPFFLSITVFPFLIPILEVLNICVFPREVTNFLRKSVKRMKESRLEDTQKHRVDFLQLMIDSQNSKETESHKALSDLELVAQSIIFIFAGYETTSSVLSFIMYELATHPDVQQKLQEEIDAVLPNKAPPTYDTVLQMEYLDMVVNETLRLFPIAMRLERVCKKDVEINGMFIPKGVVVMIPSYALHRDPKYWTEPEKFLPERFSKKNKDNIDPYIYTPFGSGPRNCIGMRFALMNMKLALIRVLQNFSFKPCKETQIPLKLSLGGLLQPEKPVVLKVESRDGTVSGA
CYP2C9, sequence (P11712 whole entry): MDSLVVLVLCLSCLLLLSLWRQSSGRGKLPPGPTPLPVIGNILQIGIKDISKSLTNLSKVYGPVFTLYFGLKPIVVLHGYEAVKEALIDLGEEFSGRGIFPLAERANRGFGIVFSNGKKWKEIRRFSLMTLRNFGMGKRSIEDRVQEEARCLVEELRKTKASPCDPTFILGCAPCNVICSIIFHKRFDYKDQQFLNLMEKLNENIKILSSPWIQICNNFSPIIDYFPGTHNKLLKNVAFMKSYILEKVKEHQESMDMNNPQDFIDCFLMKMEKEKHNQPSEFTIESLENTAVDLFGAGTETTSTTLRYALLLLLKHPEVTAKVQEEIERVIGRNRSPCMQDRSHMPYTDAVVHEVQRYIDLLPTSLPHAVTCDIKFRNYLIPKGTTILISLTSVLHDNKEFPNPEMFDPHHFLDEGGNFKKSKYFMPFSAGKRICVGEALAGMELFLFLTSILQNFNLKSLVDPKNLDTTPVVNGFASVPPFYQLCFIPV
CYP2D6, sequence (P10635 whole entry): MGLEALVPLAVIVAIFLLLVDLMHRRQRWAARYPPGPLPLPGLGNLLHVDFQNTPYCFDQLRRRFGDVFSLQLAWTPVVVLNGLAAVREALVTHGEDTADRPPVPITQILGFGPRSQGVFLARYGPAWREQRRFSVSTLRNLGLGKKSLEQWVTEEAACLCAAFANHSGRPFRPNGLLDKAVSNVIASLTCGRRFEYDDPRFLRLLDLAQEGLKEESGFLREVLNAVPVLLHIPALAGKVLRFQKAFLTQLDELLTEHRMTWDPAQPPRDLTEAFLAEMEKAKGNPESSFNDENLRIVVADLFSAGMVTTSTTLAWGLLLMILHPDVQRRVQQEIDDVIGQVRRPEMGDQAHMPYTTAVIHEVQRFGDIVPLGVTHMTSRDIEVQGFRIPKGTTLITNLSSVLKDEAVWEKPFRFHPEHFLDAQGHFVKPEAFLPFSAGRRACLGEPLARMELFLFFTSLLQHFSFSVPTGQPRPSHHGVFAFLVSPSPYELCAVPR

In the case of `Cc1ccccc1COc1ccc(-c2ccnn2-c2ccc(Cl)cc2)cc1` [compound 85, 1-(4-Chlorophenyl)-5-(4-((2-methylbenzyl)oxy)phenyl)-1H-pyrazole], the IC50 (Huh7, Mahlavu and MCF7) is reported as 0.7 to 14.4 µM, the “Metabolic stability, remaining” value [1] is reported as 55% and the logD (logD7.4) is reported as 6.64. The Solubility [2] was “sparingly soluble”, the plasma protein-bound (plasma protein) was 99.9% and the inhibition at 10 µM (CYP2C9) was 7.3%. It also gave an inhibition at 10 µM (CYP2D6) of 22.2% and an inhibition at 10 µM (CYP3A4) of 0%.
